Experimental data reported in patent US11986493B2 (University of Pittsburgh—Of the Commonwealth System of …, priority 2013, dated 2024).
“Also recorded” adds a separate entry of the source.

Tested on: subjects with pulmonary hypertension (WHO group I PAH, WHO group III PH)
Test: Right heart catheterization: right heart/pulmonary artery hemodynamics, thermodilution cardiac output, PVR and SVR after inhaled NO and nebulized nitrite
Format: in vivo, human
Protocol: A total of 6 subjects with a confirmed diagnosis of pulmonary hypertension and meeting all inclusion/exclusion criteria were enrolled in the study which entailed a single right heart catheterization. The study population consisted of subjects with WHO group I PAH (n=3) and subjects with WHO group III PH (n=3) which received the dose escalation paradigm:
During the study right heart/pulmonary artery hemodynamics were measured as well as noninvasive systemic blood pressure monitoring and simultaneous RV echocardiography. Subjects were tested for the changes in pulmonary vascular resistance (PVR) measured by right heart catheterization and using thermodilution cardiac output measurement at time zero, at times 15, 30 and 45 minutes after completion of each nebulization dose.
Following right heart catheterization, the patient was stabilized for 20 minutes. Baseline blood collections and hemodynamic measurements were performed, followed by treatment with 40 ppm inhaled NO gas for […] with repeat hemodynamic measurements performed.
After stopping inhaled NO gas, a single dose of sildenafil was given if patients were on background sildenafil therapy at previously prescribed doses. 45-minutes after sildenafil dose baseline hemodynamics were performed.
Subjects were monitored carefully during and after the study treatment.
The study was conducted at the 3rd FL Catheterization Laboratory at Presbyterian Hospital of the University of Pittsburgh Medical Center (UPMC). Baseline vasoreactivity was recorded after Inhaled NO at 40 ppm for […]. […] Subjects were instructed to breathe as calmly, and deeply as possible until no more mist was formed in the nebulizer chamber. Subjects were also instructed to hold their breath for approximately 10 seconds after inhalation to allow the study drug to reach deep into the lungs.

[1] = Patient 4, nitrite 45 mg inhaled, 15 min
[2] = Patient 4, nitrite 45 mg inhaled, 30 min
[3] = Patient 4, nitrite 45 mg inhaled, 45 min
[4] = Patient 4, nitrite 45 mg inhaled, 60 min
[5] = Patient 4, nitrite 90 mg inhaled, 15 min
[6] = Patient 4, nitrite 90 mg inhaled, 30 min
[7] = Patient 4, nitrite 90 mg inhaled, 45 min
[8] = Patient 4, nitrite 90 mg inhaled, 60 min
[9] = Patient 5, nitrite 45 mg inhaled, 15 min
[10] = Patient 5, nitrite 45 mg inhaled, 30 min
[11] = Patient 5, nitrite 45 mg inhaled, 45 min
[12] = Patient 5, nitrite 45 mg inhaled, 60 min
[13] = Patient 5, nitrite 90 mg inhaled, 15 min
[14] = Patient 5, nitrite 90 mg inhaled, 30 min
[15] = Patient 5, nitrite 90 mg inhaled, 45 min
[16] = Patient 5, nitrite 90 mg inhaled, 60 min

## O=NO [nitrite, sodium nitrite]
Patient 3, nitrite 90 mg inhaled, 60 min
  mPAP: 37.34
[1]
  CI: 3.07
  CO: 5.37
  PAD: 26
  PAS: 69
  PCWP: 7
  PVR: 6.21
  PVR/SVR: 0.36
  RA: 3
  RVD: 3
  RVS: 74
  SVR: 17.01
  TPR: 7.51
  mPAP: 40.34
[2]
  CI: 2.69
  CO: 4.7
  PAD: 24
  PAS: 70
  PCWP: 8
  PVR: 6.67
  PVR/SVR: 0.34
  RA: 4
  RVD: 3
  RVS: 67
  SVR: 19.58
  TPR: 8.37
  mPAP: 39.34
[3]
  CI: 2.71
  CO: 4.75
  PAD: 23
  PAS: 68
  PCWP: 9
  PVR: 6.11
  PVR/SVR: 0.32
  RA: 2
  RVD: 2
  RVS: 68
  SVR: 18.95
  TPR: 8.00
  mPAP: 38.01
[4]
  CI: 3.03
  CO: 5.31
  PAD: 21
  PAS: 69
  PCWP: 8
  PVR: 5.46
  PVR/SVR: 0.33
  RA: 3
  RVD: 2
  RVS: 68
  SVR: 16.57
  TPR: 6.97
  mPAP: 37.01
[5]
  CI: 3.08
  CO: 5.39
  PAD: 23
  PAS: 71
  PCWP: 8
  PVR: 5.75
  PVR/SVR: 0.39
  RA: 3
  RVD: 3
  RVS: 62
  SVR: 14.78
  TPR: 7.24
  mPAP: 39.01
[6]
  CI: 3.03
  CO: 5.3
  PAD: 22
  PAS: 70
  PCWP: 7
  PVR: 5.85
  PVR/SVR: 0.37
  RA: 4
  RVD: 3
  RVS: 70
  SVR: 15.73
  TPR: 7.17
  mPAP: 38.01
[7]
  CI: 3.08
  CO: 5.39
  PAD: 23
  PAS: 69
  PCWP: 7
  PVR: 5.81
  PVR/SVR: 0.39
  RA: 2
  RVD: 2
  RVS: 74
  SVR: 14.91
  TPR: 7.11
  mPAP: 38.34
[8]
  CI: 3.03
  CO: 5.3
  PAD: 21
  PAS: 67
  PCWP: 8
  PVR: 5.35
  PVR/SVR: 0.33
  RA: 2
  RVD: 3
  RVS: 70
  SVR: 16.04
  TPR: 6.86
  mPAP: 36.34
[9]
  CI: 2.80
  CO: 4.95
  PAD: 16
  PAS: 66
  PCWP: 3
  PVR: 5.99
  PVR/SVR: 0.48
  RA: 1
  RVD: 1
  RVS: 68
  SVR: 12.53
  TPR: 6.60
  mPAP: 32.67
[10]
  CI: 2.50
  CO: 4.43
  PAD: 15
  PAS: 66
  PCWP: 3
  PVR: 6.55
  PVR/SVR: 0.44
  RA: 1
  SVR: 14.75
  TPR: 7.22
  mPAP: 32.00
[11]
  CI: 2.75
  CO: 4.86
  PA sat: 60
  PAD: 14
  PAS: 67
  PCWP: 4
  PVR: 5.69
  PVR/SVR: 0.42
  RA: 1
  SVR: 13.65
  TPR: 6.52
  mPAP: 31.67
[12]
  CI: 2.52
  CO: 4.46
  PAD: 17
  PAS: 74
  PCWP: 7
  PVR: 6.50
  PVR/SVR: 0.49
  RA: 3
  RVD: 1
  RVS: 76
  SVR: 13.16
  TPR: 8.07
  mPAP: 36.01
[13]
  CI: 2.77
  CO: 4.91
  PAD: 16
  PAS: 76
  PCWP: 2
  PVR: 6.93
  PVR/SVR: 0.50
  RA: 1
  SVR: 13.778
  TPR: 7.33
  mPAP: 36.01
[14]
  CI: 2.81
  CO: 4.97
  PAD: 16
  PAS: 69
  PCWP: 3
  PVR: 6.17
  PVR/SVR: 0.47
  RA: 1
  SVR: 13.21
  TPR: 6.78
  mPAP: 33.67
[15]
  CI: 2.86
  CO: 5.07
  PAD: 13
  PAS: 70
  PCWP: 3
  PVR: 5.72
  PVR/SVR: 0.47
  RA: 1
  SVR: 12.16
  TPR: 6.31
  mPAP: 32.01
[16]
  CI: 3.24
  CO: 5.73
  PAD: 14
  PAS: 74
  PCWP: 3
  PVR: 5.41
  PVR/SVR: 0.44
  RA: 1
  SVR: 12.33
  TPR: 5.93
  mPAP: 34.01
Patient 6, nitrite 45, 15 min
  CI: 2.9849
  CO: 5.94
  PAD: 22
  PAS: 51
  PCWP: 12
  PVR: 3.3116
  PVR/SVR: 0.2878
  RA: 7
  SVR: 11.505
  TPR: 5.3318
  mPAP: 31.671
Patient 6, nitrite 45, 30 min
  CI: 2.8769
  CO: 47.25
  PAD: 20
  PAS: 48
  PCWP: 10
  PVR: 3.3777
  PVR/SVR: 0.2427
  RA: 6
  SVR: 13.917
  TPR: 5.1244
  mPAP: 29.337
Patient 6, nitrite 45, 45 min
  CI: 3.0704
  CO: 6.11
  PAD: 23
  PAS: 52
  PCWP: 9
  PVR: 3.8741
  PVR/SVR: 0.2958
  RA: 6
  SVR: 13.095
  TPR: 5.3471
  mPAP: 32.671
Patient 6, nitrite 45, 60 min
  CI: 2.9196
  CO: 5.81
  PAD: 28
  PAS: 50
  PCWP: 8
  PVR: 4.7053
  PVR/SVR: 0.3417
  RA: 6
  SVR: 13.771
  TPR: 6.0822
  mPAP: 35.338
Patient 6, nitrite 90, 15 min
  CI: 3.3568
  CO: 6.68
  PAD: 24
  PAS: 52
  PCWP: 9
  PVR: 3.6434
  PVR/SVR: 0.3444
  RA: 6
  SVR: 10.58
  TPR: 4.9907
  mPAP: 33.338
Patient 6, nitrite 90, 30 min
  CI: 3.6683
  CO: 7.3
  PAD: 20
  PAS: 48
  PCWP: 6
  PVR: 3.1969
  PVR/SVR: 0.3125
  RA: 6
  SVR: 10.23
  TPR: 4.0188
  mPAP: 29.337
Patient 6, nitrite 90, 45 min
  CI: 3.7085
  CO: 7.38
  PAD: 24
  PAS: 52
  PCWP: 4
  PVR: 3.9753
  PVR/SVR: 0.4074
  RA: 6
  SVR: 9.7574
  TPR: 4.5173
  mPAP: 33.338
Patient 6, nitrite 90, 60 min
  CI: 4.3417
  CO: 8.64
  PAD: 28
  PAS: 55
  PCWP: 4
  PVR: 3.82
  PVR/SVR: 0.4877
  RA: 8
  RVD: 8
  RVS: 47
  SVR: 7.8329
  TPR: 4.2829
  mPAP: 37.005
Patients with PAH (WHO Group 1 and Group 3; n=6), inhaled doses of 45 mg and 90 mg
  RA pressure (right atrial pressure): dose-dependent reduction
Patients with PAH (WHO Group 1 and Group 3; n=6), inhaled doses of 45 mg and 90 mg, listed as inhaled nitrite
  PCWP (pulmonary capillary wedge pressure): lowers; also recorded: dose-dependent reduction
Some patients of the study
  response of patients non-responsive to inhaled NO: responsive
